Laboratory results as given in PubChem BioAssay AID1963865 (Molecular Pharmacology Branch, DTP, NCI, 2024).
“And” between values parts separate entries of the source, which are not always exact repeats. Equal entries are not always repeated.

System: KRAS PDC multicell spheroid viability
Test: Anticancer human tumor 825966-067-R-J1-PDC patient-derived colon carcinoma cell line growth inhibition [KRAS2]
Details: for viability, T/C: stronger effect = lower value
From the text: Multicellular complex tumor spheroid response to RAS pathway inhibitors in combination with a targeted agents in patient-derived cell lines with oncogenic KRAS variants from multiple cancer types
A high-throughput screen of multi-cell type tumor spheroids was designed to identify active combinations of targeted small molecules and KRAS pathway inhibitors. Complex spheroids include a stromal component modeled by human endothelial cells (HUVEC) and fibroblasts modeled by human mesenchymal stem cells (MSCs). The concentration ranges selected for each drug and investigational agent were based upon clinically achievable concentrations if the clinical Cmax of the agent was known.
Compounds. The drugs and investigational agents: BI-3406 (NSC825286), BAY-293 (NSC824723), batoprotafib (TNO155; NSC825523), sotorasib (AMG 510; NSC818433), MRTX1257 (NSC819558), elimusertib (BAY 1895344; NSC800525), molibresib (GSK525762; NSC774829), temuterkib (LY3214996; NSC803410), venetoclax (NSC766270), alisertib (NSC759677), olaparib (NSC753686), talazoparib (NSC767125), erdafitinib (NSC781556), ipatasertib (NSC767898), cabozantinib (NSC761068), nintedanib (NSC756659), abemaciclib (NSC768073), docetaxel (NSC628503), trametinib (NSC758246), and sapanisertib (NSC764658) were obtained from the National Cancer Institute (NCI) Developmental Therapeutics Program Chemical Repository. The FDA-approved anticancer drug set is available from the Developmental Therapeutics Program. […] The stock solutions were prepared in dimethyl sulfoxide (DMSO, Sigma-Aldrich, St. Louis, MO, cat. D2650) at 800-fold the tested concentration and stored at -70 degrees C prior to their use. All drugs and investigational agents were tested over a range starting from a high concentration at or near the clinical Cmax and decreasing in half-log increments. If the clinical Cmax for an agent had not been determined, the highest concentration tested was 10 microM.
Cell Culture. All cells were maintained in an incubator at 37 degrees C and 5% CO2 with 95% humidity. The PDC lines were cultured according to standard operating procedures established by the NCI PDMR (https://pdmr.cancer.gov/sops/default.htm). Briefly, all PDCs were thawed and cultured in Matrigel-coated flasks prepared with a working solution of 1X Ham's F-12 nutrient mix, without supplementation (Invitrogen, Waltham, MA, cat. 11765054), 100 U/mL penicillin-streptomycin (Invitrogen, cat. 15140122), and 2.5% Matrigel (Corning Inc., Corning, NY, cat. 354248) for the first three passages. All PDCs were cultured in complete DMEM/F-12 media containing advanced DMEM/F-12 (Invitrogen, cat. 12634028), 4.9% defined fetal bovine serum, heat inactivated (HyClone Laboratories Inc., Logan, UT, cat. SH30070.03HI), 389 ng/mL hydrocortisone (Sigma-Aldrich, cat. H4001), 9.7 ng/mL human EGF recombinant protein (Invitrogen, cat. PHG0313), 23.4 microg/mL adenine (Sigma-Aldrich, cat. A2786), 97.3 U/mL penicillin-streptomycin (Invitrogen, cat. 15140122), 1.9 mM L-glutamine (Invitrogen, cat. 25030081), and 9.7 microM Y-27632 dihydrochloride (Tocris Bioscience, Bristol, United Kingdom, cat. 1254). The PDCs were cultured in complete DMEM/F12 media without 9.7 microM Y-27632 dihydrochloride for at least two passages prior to the screen. The established cell line HOP-62 was cultured in RPMI 1640 medium, HEPES (Invitrogen, cat. 22400105) with 10% defined fetal bovine serum (HyClone Laboratories Inc., cat. SH30070.03) and 2 mM L-glutamine (Invitrogen, cat. 25030081). The pooled donor HUVEC were cultured in endothelial cell growth medium 2 (PromoCell, Heidelberg, Germany, cat. C-22011) and the hMSC were cultured in mesenchymal stem cell growth medium 2 (PromoCell, cat. C-28009). For all experiments, HUVEC and hMSC were used at passages </=5, while the malignant cell lines were used at passages </=15. […]

[1] = compound alone, run of 08/19/2021
[2] = compound alone, run of 08/26/2021
[3] = compound alone, run of 09/02/2021
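Also: spheroids exposed to compounds for 7 days.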
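For viability, T/C in this document: 100% = DMSO vehicle control viability.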

**Q.** What does the source list for `C=CC(=O)N1CCN(c2nc(OCC3CCCN3C)nc3c2CCN(c2cccc4cccc(C)c24)C3)CC1CC#N` (centres undefined)?
**A.** viability, T/C (compound 0.1 µM): 87.5% [middle of 17 runs]; IC50 [1]: > 3.16 µM; IC50 [2]: > 3.16 µM; IC50 [3]: > 3.16 µM and 2.39 µM

**Q.** Which viability, T/C (compound 0.0001 µM) does the source give for `CC(=O)Nc1cccc(-n2c(=O)n(C3CC3)c(=O)c3c(Nc4ccc(I)cc4F)n(C)c(=O)c(C)c32)c1` here?
**A.** 96.8% [middle of 5 runs]

**Q.** What about the viability, T/C (compound 0.000316 µM) of the same compound?
**A.** 94.2% [middle of 5 runs]

**Q.** What about the viability, T/C (compound 0.01 µM) of the same compound?
**A.** 104% [middle of 5 runs]

**Q.** And the IC50 (curve of compound)?
**A.** > 0.0316 µM and 0.028 µM

**Q.** Which viability, T/C (compound 0.01 µM) does the source give for `CC(=O)OC12COC1CC(O)C1(C)C(=O)C(O)C3=C(C)C(OC(=O)C(O)C(NC(=O)OC(C)(C)C)c4ccccc4)CC(O)(C(OC(=O)c4ccccc4)C21)C3(C)C` (centres undefined) here?
**A.** 20.3% [middle of 5 runs]

**Q.** What about the viability, T/C (compound 0.0316 µM) of the same compound?
**A.** 23.2% [middle of 5 runs]

**Q.** And the viability, T/C (compound 0.1 µM)?
**A.** 18.5% [middle of 5 runs]

**Q.** And the viability, T/C (compound 0.316 µM)?
**A.** 23.7% [middle of 5 runs]

**Q.** What about the viability, T/C (compound 1 µM) of the same compound?
**A.** 28.8% [middle of 5 runs]

**Q.** What about the viability, T/C (compound 3.16 µM) of the same compound?
**A.** 36.5% [middle of 5 runs]

**Q.** What about the IC50 (curve of compound) of the same compound?
**A.** < 0.01 µM

**Q.** Which results are given for `CC(C)n1nc(-c2ccc3oc(N)nc3c2)c2c(N)ncnc21`?
**A.** viability, T/C (compound 0.00316 µM): 127% [middle of 5 runs]; IC50 (curve of compound): > 0.1 µM

**Q.** What does the source list for `CC1(C)CCC(CN2CCN(c3ccc(C(=O)NS(=O)(=O)c4ccc(NCC5CCOCC5)c([N+](=O)[O-])c4)c(Oc4cnc5[nH]ccc5c4)c3)CC2)=C(c2ccc(Cl)cc2)C1`?
**A.** viability, T/C (compound 0.1 µM): 90.1% [middle of 5 runs]; viability, T/C (compound 0.316 µM): 102% [middle of 5 runs]; viability, T/C (compound 3.16 µM): 29.4% [middle of 5 runs]; viability, T/C (compound 10 µM): 7.19% [middle of 5 runs]; IC50 (curve of compound): 2.03 µM [middle of 5 runs]

**Q.** `CC1COCCN1c1cc(-c2ccnn2C)c2ccnc(-c3ccn[nH]3)c2n1` (centres undefined) was tested. Which viability, T/C (compound 0.01 µM) did it give?
**A.** 110% [middle of 5 runs]

**Q.** What about the viability, T/C (compound 3.16 µM) of the same compound?
**A.** 60% [middle of 5 runs]

**Q.** What does the source list for `CC1OCC2(CCN(c3cnc(Sc4ccnc(N)c4Cl)c(N)n3)CC2)C1N` (centres undefined)?
**A.** viability, T/C (compound 0.0316 µM): 82% and 80.9% and 85.5%; viability, T/C (compound 0.1 µM): 92.7% [middle of 19 runs]; IC50 [1]: > 10 µM and 9.29 µM; IC50 [2]: 7.63 µM [middle of 5 runs]; IC50 [3]: > 10 µM and 8.08 µM; IC50 (curve of compound): 9.31 µM and 8.73 µM and > 10 µM

**Q.** `CCN1CCN(Cc2ccc(Nc3ncc(F)c(-c4cc(F)c5nc(C)n(C(C)C)c5c4)n3)nc2)CC1` was tested. Which viability, T/C (compound 0.00316 µM) did it give?
**A.** 98% [middle of 4 runs]

**Q.** And the viability, T/C (compound 0.01 µM)?
**A.** 90.6% [middle of 5 runs]

**Q.** What about the viability, T/C (compound 0.1 µM) of the same compound?
**A.** 95.5% [middle of 5 runs]

**Q.** What about the viability, T/C (compound 0.316 µM) of the same compound?
**A.** 117% [middle of 5 runs]

**Q.** And the IC50 (curve of compound)?
**A.** > 1 µM

**Q.** How did the viability, T/C (compound 0.0316 µM) turn out when `COC(=O)c1ccc2c(C(=Nc3ccc(N(C)C(=O)CN4CCN(C)CC4)cc3)c3ccccc3)c(O)[nH]c2c1` was run?
**A.** 93.7% [middle of 5 runs]

**Q.** And the viability, T/C (compound 0.1 µM)?
**A.** 90.7% [middle of 5 runs]

**Q.** What about the viability, T/C (compound 0.316 µM) of the same compound?
**A.** 92.2% [middle of 5 runs]

**Q.** What about the viability, T/C (compound 3.16 µM) of the same compound?
**A.** 0.53% [middle of 5 runs]

**Q.** What about the viability, T/C (compound 10 µM) of the same compound?
**A.** 0.29% [middle of 4 runs]

**Q.** And the IC50 (curve of compound)?
**A.** 1.24 µM [middle of 5 runs]

**Q.** How did the viability, T/C (compound 0.0316 µM) turn out when `COc1cc(OC)cc(N(CCNC(C)C)c2ccc3ncc(-c4cnn(C)c4)nc3c2)c1` was run?
**A.** 92.5% [middle of 5 runs]

**Q.** And the viability, T/C (compound 0.1 µM)?
**A.** 89.2% [middle of 5 runs]

**Q.** What about the viability, T/C (compound 0.316 µM) of the same compound?
**A.** 91.1% [middle of 5 runs]

**Q.** What about the viability, T/C (compound 1 µM) of the same compound?
**A.** 95.6% [middle of 5 runs]

**Q.** For `COc1cc2nccc(Oc3ccc(NC(=O)C4(C(=O)Nc5ccc(F)cc5)CC4)cc3)c2cc1OC`, which viability, T/C (compound 0.0316 µM) is on record?
**A.** 102% [middle of 5 runs]

**Q.** And the viability, T/C (compound 0.316 µM)?
**A.** 86.7% [middle of 5 runs]

**Q.** And the viability, T/C (compound 1 µM)?
**A.** 83.7% [middle of 5 runs]

**Q.** And the viability, T/C (compound 3.16 µM)?
**A.** 8.3% [middle of 5 runs]

**Q.** What about the viability, T/C (compound 10 µM) of the same compound?
**A.** 7.11% [middle of 5 runs]

**Q.** And the IC50 (curve of compound)?
**A.** 1.75 µM [middle of 5 runs]

**Q.** Which results are given for `Cn1nccc1Nc1nccc(-c2cc3c(s2)C(C)(C)N(CCN2CCOCC2)C3=O)n1`?
**A.** viability, T/C (compound 0.0316 µM): 90.9% [middle of 5 runs]; viability, T/C (compound 0.1 µM): 94.8% [middle of 5 runs]; viability, T/C (compound 0.316 µM): 109% [middle of 5 runs]; viability, T/C (compound 3.16 µM): 96% [middle of 5 runs]; viability, T/C (compound 10 µM): 81.8% [middle of 5 runs]; IC50 (curve of compound): > 10 µM

**Q.** How did the viability, T/C (compound 0.01 µM) turn out when `Cn1ncnc1[C@H]1c2n[nH]c(=O)c3cc(F)cc(c23)N[C@@H]1c1ccc(F)cc1` was run?
**A.** 82.8% [middle of 5 runs]

**Q.** What about the IC50 (curve of compound) of the same compound?
**A.** > 0.1 µM
